Measured values taken from ChEMBL document CHEMBL5727499, “Derivatives and methods of treating hepatitis B infections” (2020).
“Also recorded” adds a separate entry of the source.

Experiment: HBV Replication Inhibition Assay: HBV replication inhibition by the compounds of this invention could be determined in cells infected or transfected with HBV, or cells with stably integrated HBV, such as HepG2.2.15 cells (Sells et al. 1987). In this example, HepG2.2.15 cells were maintained in cell culture medium containing 10% fetal bovine serum (FBS), Geneticin, L-glutamine, penicillin and streptomycin. HepG2.2.15 cells could be seeded in 96-well plates at a density of 40,000 cells/well and be treated with serially diluted compounds at a final DMSO concentration of 0.5% either alone or in combination by adding drugs in a checker box format. Cells were incubated with compounds for three days, after which medium was removed and fresh medium containing compounds was added to cells and incubated for another three days. At day 6, supernatant was removed and treated with DNase at 37° C. for 60 minutes, followed by enzyme inactivation at 75° C. for 15 minutes. Encapsidated HBV DNA was released from the virions and covalently linked HBV polymerase by incubating in lysis buffer (Affymetrix QS0010) containing 2.5 μg proteinase K at 50° C. for 40 minutes. HBV DNA was denatured by addition of 0.2 M NaOH and detected using a branched DNA (BDNA) QuantiGene assay kit according to manufacturer recommendation (Affymetrix). HBV DNA levels could also be quantified using qPCR, based on amplification of encapsidated HBV DNA extraction with QuickExtraction Solution (Epicentre Biotechnologies) and amplification of HBV DNA using HBV specific PCR probes that can hybridize to HBV DNA and a fluorescently labeled probe for quantitation. In addition, cell viability of HepG2.2.15 cells incubated with test compounds alone or in combination was determined by using CellTitre-Glo reagent according to the manufacturer protocol (Promega). The mean background signal from wells containing only culture medium was subtracted from all other samples, and percent inhibition at each compound concentration was calculated by normalizing to signals from HepG2.2.15 cells treated with 0.5% DMSO using equation E1.% inhibition=(DMSOave−Xi)/DMSOave×100% E1:where DMSOave is the mean signal calculated from the wells that were treated with DMSO control (0% inhibition control) and Xi is the signal measured from the individual wells. EC50 values, effective concentrations that achieved 50% inhibitory effect, were determined by non-linear fitting using Graphpad Prism software (San Diego, Calif.) and equation E2Y=Y min+(Y max−Y min)/(1+10(Log EC50−X)×HillSlope) E2:where Y represents percent inhibition values and X represents the logarithm of compound concentrations.
Conditions: not given

| Structure (SMILES) | EC50 |
| --- | --- |
| CC1Cc2[nH]nc(C3CCCO3)c2CN1C(=O)Nc1ccc(F)c(C#N)c1 (stereo not drawn) | in the range around 300 nM |
| CC1Cc2[nH]nc(C3CCCC3)c2CN1C(=O)Nc1ccc(F)c(C#N)c1 (stereo not drawn) | in the range around 55 nM |
| CC1Cc2[nH]nc(C3CCC3)c2CN1C(=O)Nc1cccc(C#N)c1F (stereo not drawn) | in the range around 300 nM |
| CC1Cc2[nH]nc(C3CCCC3)c2CN1C(=O)Nc1cccc(Cl)c1 (stereo not drawn) | in the range around 55 nM |
| CC1Cc2[nH]nc(C3CCCO3)c2CN1C(=O)Nc1ccc(F)c(Cl)c1 (stereo not drawn) | in the range around 55 nM |
| Cc1cc(NC(=O)N2Cc3c(C4CCCC4)n[nH]c3CC2C)ccc1F (stereo not drawn) | in the range around 55 nM |
| CC1Cc2[nH]nc(C3CCCC3)c2CN1C(=O)Nc1ccc(F)c(Br)c1 (stereo not drawn) | in the range around 55 nM |
| CC1Cc2[nH]nc(C3CCCO3)c2CN1C(=O)Nc1ccc(F)c(Br)c1 (stereo not drawn) | in the range around 55 nM; also recorded: in the range around 300 nM |
| Cc1cccc(NC(=O)N2Cc3c(C4CCCC4)n[nH]c3CC2C)c1 (stereo not drawn) | in the range around 55 nM |
| CC1Cc2[nH]nc(C3CCCC3)c2CN1C(=O)Nc1ccc(F)c(Cl)c1 (stereo not drawn) | in the range around 55 nM |
| Cc1cc(NC(=O)N2Cc3c(C4CCCO4)n[nH]c3CC2C)ccc1F (stereo not drawn) | in the range around 55 nM; also recorded: in the range around 300 nM |
| CC1Cc2[nH]nc(C3CCCC3)c2CN1C(=O)Nc1cccc(Br)c1 (stereo not drawn) | in the range around 55 nM |
| CC1Cc2[nH]nc(C3CCCC3)c2CN1C(=O)Nc1ccnc(Br)c1F (stereo not drawn) | in the range around 55 nM |
| CC1Cc2[nH]nc(C3CCC3)c2CN1C(=O)Nc1ccnc(Br)c1F (stereo not drawn) | in the range around 300 nM |

Same assay, conditions: HepG2.2.15

| Structure (SMILES) | EC50 |
| --- | --- |
| O=C(Nc1cccc(Br)c1)N1CCc2[nH]nc(C34CCCC3C4)c2C1 (stereo not drawn) | in the range around 55 nM |
| N#Cc1cccc(NC(=O)N2CCc3[nH]nc(C45CCCC4C5)c3C2)c1F (stereo not drawn) | in the range around 55 nM |
| O=C(Nc1cccc(Cl)c1)N1CCc2[nH]nc(O)c2C1 | > 10000 nM |
| O=C(Nc1cccc(Br)c1)N1CCc2[nH]nc(C3CCC3)c2C1 | in the range around 55 nM |
| CC1Cc2[nH]nc(C3CCCO3)c2CN1C(=O)Nc1cccc(Cl)c1 (stereo not drawn) | in the range around 55 nM |
| O=C(Nc1ccnc(Cl)c1F)N1CCc2[nH]nc(C34CCCC3C4)c2C1 (stereo not drawn) | in the range around 55 nM |
| O=C(Nc1ccnc(Cl)c1F)N1CCc2[nH]nc(C3CCC3)c2C1 | in the range around 300 nM |
| CC1Cc2[nH]nc(C3CCC3)c2CN1C(=O)Nc1ccc(F)c(F)c1 (stereo not drawn) | in the range around 55 nM |
| O=C(Nc1ccc(F)c(Br)c1)N1CCc2[nH]nc(C34CCCC3C4)c2C1 (stereo not drawn) | in the range around 55 nM |
| O=C(Nc1ccc(F)c(Cl)c1)N1CCc2[nH]nc(C3CCC3)c2C1 | in the range around 55 nM |
| O=C(Nc1cccc(Cl)c1)N1CCc2[nH]nc(C3CCC(O)C3)c2C1 (stereo not drawn) | in the range around 300 nM |
| CC1Cc2[nH]nc(C3CCCO3)c2CN1C(=O)Nc1ccc(F)c(C#N)c1 (stereo not drawn) | in the range around 300 nM |
| O=C(Nc1ccc(F)c(Br)c1)N1CCc2[nH]nc(C3CCC3)c2C1 | in the range around 55 nM |
| O=C(Nc1cccc(Cl)c1)N1CCc2[nH]nc(C3CCCO3)c2C1 (stereo not drawn) | in the range around 55 nM |
| O=C(Nc1ccnc(Br)c1F)N1CCc2[nH]nc(C3CCC3)c2C1 | in the range around 300 nM |
| CC1Cc2[nH]nc(C3CCCC3)c2CN1C(=O)Nc1ccc(F)c(C#N)c1 (stereo not drawn) | in the range around 55 nM |
| CC1Cc2[nH]nc(C3CCC3)c2CN1C(=O)Nc1cccc(C#N)c1F (stereo not drawn) | in the range around 300 nM |
| CC1Cc2[nH]nc(C3CCC3)c2CN1C(=O)Nc1cccc(Br)c1F (stereo not drawn) | in the range around 300 nM |
| CC(C)(C)c1n[nH]c2c1CN(C(=O)Nc1cccc(Cl)c1)CC2 | in the range around 300 nM |
| O=C(Nc1ccc(F)c(Cl)c1)N1CCc2[nH]nc(C34CCCC3C4)c2C1 (stereo not drawn) | in the range around 55 nM |
| O=C(Nc1cccc(Cl)c1)N1CCc2[nH]nc(C3=CCCCC3)c2C1 | in the range around 55 nM |
| Cc1cccc(NC(=O)N2CCc3[nH]nc(C4CCC4)c3C2)c1 | in the range around 300 nM |
| C=C(C)c1n[nH]c2c1CN(C(=O)Nc1cccc(C)c1)CC2 | in the range around 300 nM |
| CCC(F)(F)c1n[nH]c2c1CN(C(=O)Nc1cccc(Cl)c1)CC2 | in the range around 300 nM |
| CC1Cc2[nH]nc(C3CCCC3)c2CN1C(=O)Nc1cccc(Cl)c1 (stereo not drawn) | in the range around 55 nM |

| Structure (SMILES) | EC50 |
| --- | --- |
| CC1(c2n[nH]c3c2CN(C(=O)Nc2cccc(Cl)c2)CC3)CC1 | in the range around 300 nM |
| CC(C)c1n[nH]c2c1CN(C(=O)Nc1cccc(Cl)c1)CC2 | in the range around 300 nM |
| O=C(Nc1ccc(F)c(F)c1)N1CCc2[nH]nc(C34CCCC3C4)c2C1 (stereo not drawn) | in the range around 300 nM |
| O=C(Nc1cccc(Br)c1F)N1CCc2[nH]nc(C3CCC3)c2C1 | in the range around 55 nM |
| CC1Cc2[nH]nc(C3CCCO3)c2CN1C(=O)Nc1ccnc(Br)c1F (stereo not drawn) | 750 nM |
| CC1Cc2[nH]nc(C3CCCO3)c2CN1C(=O)Nc1ccc(F)c(Cl)c1 (stereo not drawn) | in the range around 55 nM |
| O=C(Nc1cccc(Cl)c1)N1CCc2[nH]nc(C3CCCC3)c2C1 | in the range around 55 nM |
| Cc1cc(NC(=O)N2Cc3c(C4CCCC4)n[nH]c3CC2C)ccc1F (stereo not drawn) | in the range around 55 nM |
| CC1Cc2[nH]nc(C3CCC3)c2CN1C(=O)Nc1ccc(F)c(Br)c1 (stereo not drawn) | in the range around 55 nM |
| Cc1cc(NC(=O)N2CCc3[nH]nc(C4CCC4)c3C2)ccc1F | in the range around 55 nM |
| C=C(C)c1n[nH]c2c1CN(C(=O)Nc1cccc(Cl)c1)CC2 | in the range around 55 nM |
| CC1Cc2[nH]nc(C3CCC3)c2CN1C(=O)Nc1cccc(Br)c1 (stereo not drawn) | in the range around 55 nM |
| Cc1cc(NC(=O)N2Cc3c(C4CCC4)n[nH]c3CC2C)ccc1F (stereo not drawn) | in the range around 55 nM |
| O=C(Nc1ccc(F)c(F)c1)N1CCc2[nH]nc(C3CCC3)c2C1 | in the range around 300 nM |
| O=C(Nc1cccc(Cl)c1)N1CCc2[nH]nc(Br)c2C1 | > 10000 nM |
| CC(CO)c1n[nH]c2c1CN(C(=O)Nc1cccc(Cl)c1)CC2 (stereo not drawn) | > 10000 nM |
| CC1Cc2[nH]nc(C3CCCO3)c2CN1C(=O)Nc1cccc(Br)c1 (stereo not drawn) | in the range around 55 nM |
| CCC(C)(C)c1n[nH]c2c1CN(C(=O)Nc1cccc(Cl)c1)CC2 | in the range around 300 nM |
| Cc1cc(NC(=O)N2CCc3[nH]nc(C45CCCC4C5)c3C2)ccc1F (stereo not drawn) | in the range around 55 nM |
| N#Cc1cc(NC(=O)N2CCc3[nH]nc(C45CCCC4C5)c3C2)ccc1F (stereo not drawn) | in the range around 55 nM |
| CC1Cc2[nH]nc(C3CCCC3)c2CN1C(=O)Nc1ccc(F)c(Br)c1 (stereo not drawn) | in the range around 55 nM |
| C=C(C)c1n[nH]c2c1CN(C(=O)Nc1ccnc(Cl)c1F)CC2 | in the range around 300 nM |
| O=C(Nc1cccc(Cl)c1)N1CCc2[nH]nc(C3=CCCC3)c2C1 | in the range around 55 nM |
| O=C(Nc1cccc(Cl)c1)N1CCc2[nH]nc(C34CCCC3C4)c2C1 (stereo not drawn) | in the range around 55 nM |
| O=C(Nc1ccnc(Br)c1F)N1CCc2[nH]nc(C34CCCC3C4)c2C1 (stereo not drawn) | in the range around 55 nM |

| Structure (SMILES) | EC50 |
| --- | --- |
| O=C(Nc1cccc(Cl)c1)N1CCc2[nH]nc(C3=CC(F)CC3)c2C1 (stereo not drawn) | in the range around 55 nM |
| Cc1cccc(NC(=O)N2Cc3c(C4CCCC4)n[nH]c3CC2C)c1 (stereo not drawn) | in the range around 55 nM |
| CC1Cc2[nH]nc(C3CCCC3)c2CN1C(=O)Nc1ccc(F)c(Cl)c1 (stereo not drawn) | in the range around 55 nM |
| CC1(c2n[nH]c3c2CN(C(=O)Nc2cccc(Cl)c2)CC3)CCC1 | in the range around 55 nM |
| CCCc1n[nH]c2c1CN(C(=O)Nc1cccc(Cl)c1)CC2 | in the range around 300 nM |
| O=C(Nc1cccc(Cl)c1)N1CCc2[nH]nc(N3CCCC3)c2C1 | in the range around 300 nM |
| O=C(Nc1cccc(Cl)c1)N1CCc2[nH]nc(C3=CCOCC3)c2C1 | in the range around 300 nM |
| C=C(C)c1n[nH]c2c1CN(C(=O)Nc1cccc(Br)c1F)CC2 | in the range around 55 nM |
| CC(C)(O)c1n[nH]c2c1CN(C(=O)Nc1cccc(Cl)c1)CC2 | > 10000 nM |
| CC1Cc2[nH]nc(C3CCCC3)c2CN1C(=O)Nc1cccc(Br)c1 (stereo not drawn) | in the range around 55 nM |
| O=C(Nc1cccc(Cl)c1)N1CCc2[nH]nc(C3CCC3)c2C1 | in the range around 55 nM |
| O=C(Nc1cccc(Cl)c1)N1CCc2[nH]nc(C3(C(F)(F)F)CC3)c2C1 | in the range around 300 nM |
| Cc1cccc(NC(=O)N2Cc3c(C4CCC4)n[nH]c3CC2C)c1 (stereo not drawn) | in the range around 55 nM |
| O=C(Nc1cccc(Cl)c1)N1CCc2[nH]nc(C3CC3)c2C1 | in the range around 300 nM |
| CC1Cc2[nH]nc(C3CCCC3)c2CN1C(=O)Nc1ccnc(Br)c1F (stereo not drawn) | in the range around 55 nM |
| Cc1cccc(NC(=O)N2Cc3c(C4CCCO4)n[nH]c3CC2C)c1 (stereo not drawn) | in the range around 300 nM |
| CC1Cc2[nH]nc(C3CCC3)c2CN1C(=O)Nc1ccnc(Br)c1F (stereo not drawn) | in the range around 300 nM |
| O=C(Nc1cccc(Br)c1F)N1CCc2[nH]nc(C34CCCC3C4)c2C1 (stereo not drawn) | in the range around 55 nM |
| CC1Cc2[nH]nc(C3CCC3)c2CN1C(=O)Nc1ccc(F)c(C#N)c1 (stereo not drawn) | in the range around 55 nM |
| O=C(Nc1cccc(Cl)c1)N1CCc2[nH]nc(C3CCOCC3)c2C1 | in the range around 300 nM |
| CCCC(F)(F)c1n[nH]c2c1CN(C(=O)Nc1cccc(Cl)c1)CC2 | in the range around 55 nM |
| N#Cc1cc(NC(=O)N2CCc3[nH]nc(C4CCC4)c3C2)ccc1F | in the range around 55 nM |
| O=C(Nc1cccc(Cl)c1)N1CCc2[nH]nc(C3CC=CC3)c2C1 | in the range around 55 nM |
| Cc1cccc(NC(=O)N2CCc3[nH]nc(C45CCCC4C5)c3C2)c1 (stereo not drawn) | in the range around 55 nM |
